Results on nine compounds are retold here after paper PMC3353318 (Bioorganic & Medicinal Chemistry, 2011).

One series deals with NMDA receptors. The series is classed as cell-based, rat.
The conditions of series [1]: cited from earlier work.
Series [2] has as its system bloodstream form T. brucei (strain 427). It counts as cell-based, Trypanosoma brucei.
The subject of series [3] is vesicular stomatitis virus (VSV) in HeLa cells. The note with it: for EC50: read-out: EC50 (50% antiviral effective concentration) against VSV.
In another series the test system is VSV in HEL cells. The series is classed as cell-based, vesicular stomatitis virus.
The test system of series [4] is influenza A/Puerto Rico/8/34 (H1N1). As to the kind of experiment: Influenza virus assay, A/H1N1. The note with it: read-out: antiviral EC50 against influenza A/H1N1 subtype. The series is classed as cell-based.
The mark [5] stands for this setting: read-out: IC50, Glutamate (100 μM).

Where “and” joins values, the source holds several entries; their conditions need not be identical. Equal entries are not always repeated. Entries after “also recorded” stand apart in the source; their conditions may differ. Where two headings read alike, the source gives them in different places.

Consider “6,7,8,9,10,11-Hexahydro-9-methyl-5,7:9,11-dimethano-5H-benzocyclononen-7-amine hydrochloride [Compound 3]”, for which the IC50 on NMDA receptors (setting [5]) was determined as 22 ± 3.9 µM; on NMDA receptors (read-out: IC50, NMDA (100 μM)), 13.6 ± 3.4 µM.

Consider `c1ccc(CNC23OC4C5C6CC(C7C6C4C72)C53)cc1` (stereo not shown) [NGP1-01], for which the “stability in aqueous medium (in words)” value in series [1] is given as “decomposes easily in aqueous medium”.

“N,N-Dimethyl-6,7,8,9,10,11-hexahydro-9-methyl-5,7:9,11-dimethano-5H-benzocyclononen-7-amine hydrochloride [Compound 11]”: the half-maximal inhibitory concentration (IC50) on NMDA receptors (setting [5]) was 87 ± 28 µM; at NMDA receptors (read-out: IC50, NMDA (100 μM)) it was 12 µM and 11.8 µM. In addition, the “inhibitory activity against cultured bloodstream form T. brucei (in words)” value in series [2] (at 5 μg mL^−1 (15–20 μM)) is on record as “little or no inhibitory activity”.

For the compound “N,N-dipropargyl-6,7,8,9,10,11-hexahydro-9-methyl-5,7:9,11-dimethano-5H-benzocyclononen-7-amine hydrochloride [Compound 10]”, in series [3], the “selectivity index (ratio of cytotoxic to antiviral concentration)” value came out at 25 and the EC50 came to 4 µM. Also, in the series with VSV in HEL cells, the “activity against VSV in HEL cells (in words)” value is reported as “not active”.

As for “N-(6,7,8,9,10,11-hexahydro-9-methyl-5,7:9,11-dimethano-5H-benzocyclononen-7-yl)piperidine hydrochloride [Compound 12]”, the half-inhibitory concentration (IC50) at NMDA receptors (setting [5]) was over 500 µM. In series [3], the EC50 was determined as 54 µM. Moreover, the “activity against VSV in HEL cells (in words)” value with VSV in HEL cells is “not active”.

As for “N-Benzyl-6,7,8,9,10,11-hexahydro-9-methyl-5,7:9,11-dimethano-5H-benzocyclononen-7-amine hydrochloride [Compound 6]”, the “NMDA receptor antagonist activity (in words)” value with NMDA receptors was “devoid of activity; also recorded: not active as NMDA receptor antagonist”. For the same compound, the half-maximal inhibitory concentration (IC50) in series [2] (read-out: IC50 against cultured bloodstream form T. brucei) was found to be 3 ± 0.32 µM. Moreover, the IC90 in series [2] (read-out: IC90 against cultured bloodstream form T. brucei) was found to be 6.55 ± 0.32 µM. The EC50 in series [4] was determined as 10 µM.

Turning to “N-Benzyl-N-methyl-6,7,8,9,10,11-hexahydro-9-methyl-5,7:9,11-dimethano-5H-benzocyclononen-7-amine hydrochloride [Compound 7]”, the “NMDA receptor antagonist activity (in words)” value with NMDA receptors is on record as “devoid of activity”.

For the compound “N-Methyl-6,7,8,9,10,11-hexahydro-9-methyl-5,7:9,11-dimethano-5H-benzocyclononen-7-amine hydrochloride [Compound 8]”, the IC50 on NMDA receptors (setting [5]) came out at 455 ± 216 µM; on NMDA receptors (read-out: IC50, NMDA (100 μM)) it was 19.4 ± 3.3 µM.

In the case of “N-Propargyl-6,7,8,9,10,11-hexahydro-9-methyl-5,7:9,11-dimethano-5H-benzocyclononen-7-amine hydrochloride [Compound 9]”, the 50% inhibitory concentration (IC50) on NMDA receptors (setting [5]) is over 500 µM; on NMDA receptors (read-out: IC50, NMDA (100 μM)), 27.5 ± 13.2 µM. Moreover, the “IC90 lower than that of rimantadine (fold)” value in series [2] (versus rimantadine) is on record as “more than 4 times”.

A word on the IC50: it is the concentration needed to halve the response being measured. Usually IC90 stands for the concentration needed for an effect of 90%.
